This is an account of results in ChEMBL document CHEMBL5257025, “Artemisinin-Derived Dimers: Potent Antimalarial and Anticancer Agents” (J Med Chem, 2016).

Data set [1] in a line: Cytotoxicity against African green monkey Vero cells. It is filed as toxicity, cell-based. To be noted: chlorocebus sabaeus, read-out: TC50 (the source's name).
For data set [2], the system named is Plasmodium falciparum. Put plainly: Antimalarial activity against Plasmodium falciparum K1 assessed as inhibition of malarial growth. The class given is functional, organism-based.
The subject of data set [3] is Plasmodium falciparum. Put plainly: Antimalarial activity against Plasmodium falciparum NF54 assessed as reduction in cell growth. The class given is functional, organism-based.
In data set [4] the test system is Plasmodium falciparum. Put plainly: Antimalarial activity against Plasmodium falciparum W2 assessed as reduction in malarial growth. It is filed as functional, organism-based.
Another data set relates to CAKI-2. Put plainly: Antiproliferative activity against human CAKI-2 cells assessed as inhibition of cell growth. It is filed as functional, cell-based.
Data set [5] concerns HL-60. Put plainly: Antiproliferative activity against human HL-60 cells assessed as cell growth inhibition measured after 48 hrs by SRB assay. The class given is functional, cell-based. To be noted: HL-60, 48 h. On the technique in general: The SRB assay estimates cell density from bound dye.
For data set [6], the system named is BT-549. Put plainly: Antiproliferative activity against human BT-549 cells assessed as cell growth inhibition measured after 72 hrs by SRB assay. It is filed as functional, cell-based. As to conditions: BT-549, 72 h.
Data set [7] deals with Plasmodium falciparum. Put plainly: microbe, parasite or virus in culture. As to conditions: Dd2.
Description: Antiplasmodial activity against Plasmodium falciparum Dd2 assessed as inhibition of parasitic growth
A short description of data set [8]: Cytotoxicity against pig LLC-PK1 cells. It is filed as toxicity, cell-based, Sus scrofa. As to conditions: read-out: TC50 (the source's name).
The test system of data set [9] is HL-60. Put plainly: Antiproliferative activity against human HL-60 cells assessed as reduction in cell viability incubated for 48 hrs by MTT assay. As to conditions: HL-60, 48 h. The class given is functional, cell-based. For orientation: Tetrazolium assays rely on reduction of a dye to a coloured formazan, in cell work by metabolically active cells.
The test system of another data set is ADR5000 cell line. Put plainly: Antiproliferative activity against human CEM/ADR5000 cells assessed as reduction in cell viability incubated for 48 hrs by MTT assay. The class given is functional, cell-based. To be noted: ADR5000, 48 h.
The test system of another data set is Jurkat. Put plainly: Antiproliferative activity against human Jurkat cells assessed as reduction in cell viability incubated for 48 hrs by MTT assay. It is filed as functional, cell-based.
Data set [10] concerns SK-MEL. Put plainly: Antiproliferative activity against human SK-MEL cells assessed as reduction in cell viability incubated for 48 hrs by MTT assay. The class given is functional, cell-based.
Another data set concerns KB. Put plainly: Antiproliferative activity against human KB cells assessed as reduction in cell viability incubated for 48 hrs by MTT assay. It is filed as functional, cell-based.
The subject of data set [11] is BT-549. Put plainly: Antiproliferative activity against human BT-549 cells assessed as reduction in cell viability incubated for 48 hrs by MTT assay. To be noted: BT-549, 48 h. It is filed as functional, cell-based.
The next data set concerns SK-OV-3. Put plainly: Antiproliferative activity against human SK-OV-3 cells assessed as reduction in cell viability incubated for 48 hrs by MTT assay. As to conditions: SK-OV-3, 48 h. The class given is functional, cell-based.
Another data set relates to SK-MEL-2. Put plainly: Antiproliferative activity against human SK-MEL-2 cells assessed as reduction in cell viability incubated for 48 hrs by MTT assay. It is filed as functional, cell-based. To be noted: SK-MEL-2, 48 h.
A further data set concerns XF498. Put plainly: Antiproliferative activity against human XF498 cells assessed as reduction in cell viability incubated for 48 hrs by MTT assay. It is filed as functional, cell-based. As to conditions: XF498, 48 h.
The test system of a further data set is SK-VLB. Put plainly: Antiproliferative activity against human SK-VLB cells assessed as reduction in cell viability incubated for 48 hrs by MTT assay. It is filed as functional, cell-based.
The test system of data set [12] is SK-MEL. Put plainly: Antiproliferative activity against human SK-MEL cells assessed as reduction in cell growth inhibition. The class given is functional, cell-based.
The next data set relates to A549. Put plainly: cells. To be noted: Homo sapiens, A549, 48 h.
Another data set deals with HCT-15. Put plainly: cells. As to conditions: Homo sapiens, HCT-15, 48 h.

Description for HCT-15: Antiproliferative activity against human HCT-15 cells assessed as reduction in cell viability incubated for 48 hrs by MTT assay

On to `C[C@@H]1CC[C@H]2[C@@H](C)C(=O)O[C@@H]3O[C@@]4(C)CC[C@@H]1[C@]32OO4` [ARTEMISININ], for which, in data set [1], the CC50 is greater than 1690 nM. In addition, the concentration for half-maximal inhibition (IC50) in the data set with Plasmodium falciparum [2] worked out at 7.81 nM; with Plasmodium falciparum [3], 6.9 nM; with Plasmodium falciparum [4] it was 6.6 nM; in the data set on CAKI-2 it was 40 µM; with HL-60 [5] it was 40 µM; with BT-549 [6] it was 40 µM. In the data set with Plasmodium falciparum [7], the 50% inhibitory concentration (IC50) was found to be 6.9 nM.
Take `COc1cccc2c1C(=O)c1c(O)c3c(c(O)c1C2=O)C[C@@](O)(C(=O)CO)C[C@@H]3O[C@H]1C[C@H](N)[C@H](O)[C@H](C)O1` [DOXORUBICIN]: the CC50 in data set [8] was determined as 1290 nM. In addition, the IC50 in the data set with HL-60 [9], in the data set with ADR5000 cell line, in the data set with Jurkat, with SK-MEL [10], in the data set with KB and in the data set with BT-549 [11] was 9 nM throughout. Further, the IC50 with SK-OV-3 was 9 nM; in the data set with SK-MEL-2, 9 nM; in the data set on XF498, 9 nM; in the data set with SK-VLB it was 9 nM; with SK-MEL [12], 170 nM; with A549, 9 nM. This compound gave an IC50 with HCT-15 of 9 nM.

For orientation: IC50 means the concentration that inhibits the measured activity by half.
